# Results from article PMC9820118, “Betulin Acid Ester Derivatives Inhibit Cancer Cell Growth by Inducing Apoptosis through Caspase Cascade Activation: A Comprehensive In Vitro and In Silico Study” (International Journal of Molecular Sciences, 2022).
# Test system: MV4-11 cells
# Assay: Antiproliferative activity, MTT assay, MV4-11 leukemia cells
# Format: cell-based, human
# Conditions: Homo sapiens, MV4-11, 72 h, 72 h incubation, MTT; read-out: Growth inhibition IC50, leukemia cell line MV4-11
# Procedure: (§1) The in vitro antiproliferative activity tests have been conducted against four human cancer cell lines: MV4-11 biphenotypic B myelomonocytic leukemia cell line, A549 lung carcinoma cell line, MCF-7 breast carcinoma cell line, PC-3 prostate carcinoma cell line and one normal BALB/3T3 mouse fibroblast cell line. […] All tested compounds were dissolved in DMSO and diluted with a culture medium to a desired concentration. […] Cell viability, after 72 h incubation of the cells with tested compounds, was determined using tetrazolinum dye MTT (for MV4-11 cells) or sulforhodamine B (SRB test, for MCF-7, A549, PC-3, BALB/3T3 cells) colorimetric assays.
# (§2) Human biphenotypic B myelomonocytic leukemia MV4-11, murine normal fibroblast BALB/3T3 cells were obtained from the American Type Culture Collection (USA); and human lung carcinoma A549, human breast cancer MCF-7 and human prostate adenocarcinoma PC-3 were obtained from the European Collection of Authenticated Cell Cultures (UK).
# (§3) MV4-11 and PC-3 cells were cultured in RPMI 1640 medium (HIIET PAS, Poland) with 1.0 mM sodium pyruvate (only MV4-11) and 10% fetal bovine serum (FBS) (all from Merck, Darmstadt, Germany). A549 cells were cultured in RPMI 1640 + Opti-MEM (1:1) ((HIIET PAS, Poland and Gibco, UK) supplemented with 5% fetal bovine serum (Merck, Darmstadt, Germany). The MCF-7 cells were cultured in Eagle medium (HIIET PAS, Poland) supplemented with 8 mg/mL of insulin and 1% of MEM NON-Essential amino acid (all Merck, Darmstadt, Germany). Normal fibroblasts BALB/3T3 cells were cultured in DMEM medium (Gibco, UK) supplemented with 10% fetal bovine serum and 1.0 mM sodium pyruvate (all from Merck, Darmstadt, Germany). All culture media were supplemented with 2 mM L-glutamine (Merck, Darmstadt, Germany), 100 units/ml penicillin, (Polfa Tarchomin S.A., Poland) and 100 µg/mL streptomycin (Merck, Darmstadt, Germany). All cell lines were grown at 37 °C in a 5% CO2 humidified atmosphere.
# (§4) The solutions of the tested compounds were prepared by dissolving the substances in DMSO to the desired concentration (25 mM). Then, the tested compounds were diluted in a culture medium to reach the final concentrations. Before addition of the tested compounds (24 h prior), the cells were plated in 96-well plates (Sarstedt, Germany) at a density of 1 × 10^4, 0.75 × 10^4 (MCF-7) or 0.5 × 10^4 (A549) cells per well. The assay was performed after 72 h of exposure to 100, 10, 1 and 0.1 µM concentration of the tested agents. […] The SRB method determined the amount of cellular proteins. The concentration of the colorimetric probe (formazan in MTT or sulforhodamine B in SRB method) was determined by an optical density measurement using a standard microplate reader for 96-well plates. After optical density measurement, using the data of the mean absorbances of control cells (AbCC), the absorbances of cells treated by the tested compound (AbTr) (for each concentration separately) and the absorbance of the cultured medium (AbCM) the % of cell proliferation inhibition was calculated according to the following formula: % inh. cells proliferation=100−AbTr−AbCM/AbCC−AbCM×100
# (§5) From the obtained proliferation inhibition values, effect-concentration curves of the compound used were plotted. […] IC50 values were calculated for each experiment separately using the Prolab-3 system based on Cheburator 0.4 software [36] and mean values (±SD) are presented. Each compound in each concentration was tested in triplicate in a single experiment, which was repeated 3–5 times.
row,SMILES,IC50 [µM]
1,C=C(C)[C@@H]1CC[C@]2(COC(=O)CCC(=O)N3CCSCC3)CC[C@]3(C)C(CCC4[C@@]5(C)CC[C@H](O)C(C)(C)C5CC[C@]43C)C12 (stereo partly drawn) [2d],3.16
2,"C=C(C)[C@@H]1CC[C@]2(CO)CC[C@]3(C)[C@H](CC[C@@H]4[C@@]5(C)CC[C@H](O)C(C)(C)[C@@H]5CC[C@]43C)[C@@H]12 [Betulin 1, betulin]",18.2
3,"COc1cccc2c1C(=O)c1c(O)c3c(c(O)c1C2=O)C[C@@](O)(C(=O)CO)C[C@@H]3O[C@H]1C[C@H](N)[C@H](O)[C@H](C)O1 [Doxorubicin, doxorubicin, reference compound]",0.01

# Same assay, conditions: IC50 BALB/3T3 / IC50 MV4-11
row,SMILES,"Calculated Selectivity Index SI, MV4-11"
1,C=C(C)[C@@H]1CC[C@]2(COC(=O)CCC(=O)N3CCSCC3)CC[C@]3(C)C(CCC4[C@@]5(C)CC[C@H](O)C(C)(C)C5CC[C@]43C)C12 (stereo partly drawn) [2d],15.8
2,"C=C(C)[C@@H]1CC[C@]2(CO)CC[C@]3(C)[C@H](CC[C@@H]4[C@@]5(C)CC[C@H](O)C(C)(C)[C@@H]5CC[C@]43C)[C@@H]12 [Betulin 1, betulin]",1.8
3,"COc1cccc2c1C(=O)c1c(O)c3c(c(O)c1C2=O)C[C@@](O)(C(=O)CO)C[C@@H]3O[C@H]1C[C@H](N)[C@H](O)[C@H](C)O1 [Doxorubicin, doxorubicin, reference compound]",18.0

# Test system: A549 cells
# Assay: Cell cycle analysis, PI staining flow cytometry, A549
# Format: cell-based, human
# Conditions: about IC50, 72 h
# Procedure: The effects of the selected derivatives on the cell cycle were analyzed by flow cytometry using PI staining.
# The MV4-11, A549 and PC-3 cells were seeded on 24-well plates (Sarstedt, Germany) for a final volume of 1.5 mL. […] After incubation, the cells were collected and 1 × 10^6 of cells were washed twice in cold PBS and fixed for 24 h in 70% ethanol at −20 °C, the cells were washed twice in PBS and incubated with RNAse (8 μg/mL, Fermentas, Germany) at 37 °C for 1 h. The cells were stained for 30 min. with propidium iodide (50 μg/mL, Sigma Aldrich, Germany) at 4 °C and the cellular DNA content was analyzed by flow cytometry using BD LSRFortessa cytometer (BD Bioscience, San Jose, CA, USA). Compounds at each concentration were tested at least three times independently. The obtained results were analyzed using Flowing software 2.5.1 (Cell Imaging Core, Turku Centre for Biotechnology, University of Turku and Åbo Akademi University, Turku, Finland).
row,SMILES,"Influence on cell cycle, A549, 72 h"
1,C=C(C)[C@@H]1CC[C@]2(COC(=O)CCC(=O)N3CCSCC3)CC[C@]3(C)C(CCC4[C@@]5(C)CC[C@H](O)C(C)(C)C5CC[C@]43C)C12 (stereo partly drawn) [2d],greater percentage of dead cells with a decrease in G2/M and G0/G1 phases

# Test system: caspase-3/7
# Assay: Caspase-3/7 activity (AC-DEVD-AMC substrate) in MV4-11 cells
# Format: cell-based, human
# Conditions: not given
# Excerpt: Caspase-3 and caspase-7 are cysteine-aspartic acid proteases that can directly execute apoptosis […] sequential activation of caspase-8 or caspase-9. Activation of these enzymes leads to apoptotic cell death; thus, measuring their activity is a good method to determine the pro-apoptotic potential of tested compounds. One of the mechanisms of betulin’s antiproliferative activity is activation of these enzymes; therefore, to further examine the mechanism of action of tested derivatives, we decided to determine their levels.
# The MV4-11, A549 and PC-3 cells were seeded on 48-well plates for a final volume of 1 mL. […] After incubation, the cells were collected and centrifuged (5 min., 4 °C, 250× g). Cells were suspended in 50 µL of ice-cold lysis buffer (50 mM HEPES, 10% (w/v) sucrose, 150 mM NaCl, 2 mM EDTA and 1% (v/v) Triton X-100, pH 7.3, HIIET, Poland) and incubated 30 min. at 40 °C. […] The fluorescence increase correlated with the caspase-3/7 level was continuously recorded at 37 °C for 120 min using a Biotek Synergy H4 (Biokom, Warsaw, Poland). […]
row,SMILES,"caspase-3/7 levels, MV4-11, 24 h"
1,C=C(C)[C@@H]1CC[C@]2(COC(=O)CCC(=O)N3CCSCC3)CC[C@]3(C)C(CCC4[C@@]5(C)CC[C@H](O)C(C)(C)C5CC[C@]43C)C12 (stereo partly drawn) [2d],increased levels of caspase-3/7

# Test system: not listed separately
# Assay: in vitro
# Conditions: mouse
# Procedure: as §1, §2, §3, §4, §5
row,SMILES,IC50 at 72 h [µM]
1,C=C(C)[C@@H]1CC[C@]2(COC(=O)CCC(=O)N3CCSCC3)CC[C@]3(C)C(CCC4[C@@]5(C)CC[C@H](O)C(C)(C)C5CC[C@]43C)C12 (stereo partly drawn) [2d],> 50

# Test system: not listed separately
# Assay: Experimental lipophilicity by RP-TLC
# Conditions: RP-TLC, RP-18 F254S, acetone / Tris buffer pH 7.4, extrapolated to zero acetone
row,SMILES,RM0
1,C=C(C)[C@@H]1CC[C@]2(COC(=O)CCC(=O)N3CCSCC3)CC[C@]3(C)C(CCC4[C@@]5(C)CC[C@H](O)C(C)(C)C5CC[C@]43C)C12 (stereo partly drawn) [2d],5.898

# Test system: not listed separately
# Assay: Cytotoxicity, SRB assay, normal BALB/3T3 fibroblasts
# Conditions: mouse
# Procedure: as §1, §2, §3, §4, §5
row,SMILES,IC50 at 72 h [µM]
1,"C=C(C)[C@@H]1CC[C@]2(CO)CC[C@]3(C)[C@H](CC[C@@H]4[C@@]5(C)CC[C@H](O)C(C)(C)[C@@H]5CC[C@]43C)[C@@H]12 [Betulin 1, betulin]",31.8

# Same assay, conditions: mouse, BALB/3T3 normal fibroblast cells
row,SMILES,IC50 at 72 h [µM]
1,"COc1cccc2c1C(=O)c1c(O)c3c(c(O)c1C2=O)C[C@@](O)(C(=O)CO)C[C@@H]3O[C@H]1C[C@H](N)[C@H](O)[C@H](C)O1 [Doxorubicin, doxorubicin, reference compound]",0.18

# Test system: A549 cell line
# Assay: Antiproliferative activity, SRB assay, A549 lung carcinoma cells
# Conditions: Homo sapiens, A549, 72 h, read-out: Cytotoxicity IC50 against A549 cell line
# Procedure: as §1, §2, §3, §4, §5
row,SMILES,IC50 [µM]
1,C=C(C)[C@@H]1CC[C@]2(COC(=O)CCC(=O)N3CCSCC3)CC[C@]3(C)C(CCC4[C@@]5(C)CC[C@H](O)C(C)(C)C5CC[C@]43C)C12 (stereo partly drawn) [2d],32
2,"C=C(C)[C@@H]1CC[C@]2(CO)CC[C@]3(C)[C@H](CC[C@@H]4[C@@]5(C)CC[C@H](O)C(C)(C)[C@@H]5CC[C@]43C)[C@@H]12 [Betulin 1, betulin]",15.5
3,"COc1cccc2c1C(=O)c1c(O)c3c(c(O)c1C2=O)C[C@@](O)(C(=O)CO)C[C@@H]3O[C@H]1C[C@H](N)[C@H](O)[C@H](C)O1 [Doxorubicin, doxorubicin, reference compound]",0.04

# Same assay, conditions: IC50 BALB/3T3 / IC50 A549
row,SMILES,"Calculated Selectivity Index SI, A549"
1,C=C(C)[C@@H]1CC[C@]2(COC(=O)CCC(=O)N3CCSCC3)CC[C@]3(C)C(CCC4[C@@]5(C)CC[C@H](O)C(C)(C)C5CC[C@]43C)C12 (stereo partly drawn) [2d],1.6
2,"C=C(C)[C@@H]1CC[C@]2(CO)CC[C@]3(C)[C@H](CC[C@@H]4[C@@]5(C)CC[C@H](O)C(C)(C)[C@@H]5CC[C@]43C)[C@@H]12 [Betulin 1, betulin]",2.0
3,"COc1cccc2c1C(=O)c1c(O)c3c(c(O)c1C2=O)C[C@@](O)(C(=O)CO)C[C@@H]3O[C@H]1C[C@H](N)[C@H](O)[C@H](C)O1 [Doxorubicin, doxorubicin, reference compound]",4.5

# Test system: MCF-7 cell line
# Assay: Antiproliferative activity, SRB assay, MCF-7 breast carcinoma cells
# Conditions: Homo sapiens, MCF7, 72 h, read-out: Cytotoxicity IC50 against MCF-7 cell line
# Procedure: as §1, §2, §3, §4, §5
row,SMILES,IC50 [µM]
1,C=C(C)[C@@H]1CC[C@]2(COC(=O)CCC(=O)N3CCSCC3)CC[C@]3(C)C(CCC4[C@@]5(C)CC[C@H](O)C(C)(C)C5CC[C@]43C)C12 (stereo partly drawn) [2d],50
2,"C=C(C)[C@@H]1CC[C@]2(CO)CC[C@]3(C)[C@H](CC[C@@H]4[C@@]5(C)CC[C@H](O)C(C)(C)[C@@H]5CC[C@]43C)[C@@H]12 [Betulin 1, betulin]",38.8
3,"COc1cccc2c1C(=O)c1c(O)c3c(c(O)c1C2=O)C[C@@](O)(C(=O)CO)C[C@@H]3O[C@H]1C[C@H](N)[C@H](O)[C@H](C)O1 [Doxorubicin, doxorubicin, reference compound]",0.08

# Same assay, conditions: IC50 BALB/3T3 / IC50 MCF-7
row,SMILES,"Calculated Selectivity Index SI, MCF-7"
1,C=C(C)[C@@H]1CC[C@]2(COC(=O)CCC(=O)N3CCSCC3)CC[C@]3(C)C(CCC4[C@@]5(C)CC[C@H](O)C(C)(C)C5CC[C@]43C)C12 (stereo partly drawn) [2d],1.0
2,"C=C(C)[C@@H]1CC[C@]2(CO)CC[C@]3(C)[C@H](CC[C@@H]4[C@@]5(C)CC[C@H](O)C(C)(C)[C@@H]5CC[C@]43C)[C@@H]12 [Betulin 1, betulin]",0.8
3,"COc1cccc2c1C(=O)c1c(O)c3c(c(O)c1C2=O)C[C@@](O)(C(=O)CO)C[C@@H]3O[C@H]1C[C@H](N)[C@H](O)[C@H](C)O1 [Doxorubicin, doxorubicin, reference compound]",2.3

# Test system: PC-3 cell line
# Assay: Antiproliferative activity, SRB assay, PC-3 prostate carcinoma cells
# Conditions: Homo sapiens, PC-3, 72 h, read-out: Cytotoxicity IC50 against PC-3 cell line
row,SMILES,IC50 [µM]
1,C=C(C)[C@@H]1CC[C@]2(COC(=O)CCC(=O)N3CCSCC3)CC[C@]3(C)C(CCC4[C@@]5(C)CC[C@H](O)C(C)(C)C5CC[C@]43C)C12 (stereo partly drawn) [2d],50
2,"C=C(C)[C@@H]1CC[C@]2(CO)CC[C@]3(C)[C@H](CC[C@@H]4[C@@]5(C)CC[C@H](O)C(C)(C)[C@@H]5CC[C@]43C)[C@@H]12 [Betulin 1, betulin]",32.5
3,"COc1cccc2c1C(=O)c1c(O)c3c(c(O)c1C2=O)C[C@@](O)(C(=O)CO)C[C@@H]3O[C@H]1C[C@H](N)[C@H](O)[C@H](C)O1 [Doxorubicin, doxorubicin, reference compound]",0.43

# Same assay, conditions: IC50 BALB/3T3 / IC50 PC-3
row,SMILES,"Calculated Selectivity Index SI, PC-3"
1,C=C(C)[C@@H]1CC[C@]2(COC(=O)CCC(=O)N3CCSCC3)CC[C@]3(C)C(CCC4[C@@]5(C)CC[C@H](O)C(C)(C)C5CC[C@]43C)C12 (stereo partly drawn) [2d],1.0
2,"C=C(C)[C@@H]1CC[C@]2(CO)CC[C@]3(C)[C@H](CC[C@@H]4[C@@]5(C)CC[C@H](O)C(C)(C)[C@@H]5CC[C@]43C)[C@@H]12 [Betulin 1, betulin]",1.0
3,"COc1cccc2c1C(=O)c1c(O)c3c(c(O)c1C2=O)C[C@@](O)(C(=O)CO)C[C@@H]3O[C@H]1C[C@H](N)[C@H](O)[C@H](C)O1 [Doxorubicin, doxorubicin, reference compound]",0.4
